Test results from patent US9034311B2, “Pyridin-2(1 H)-one derivatives as JAK inhibitors” (ALMIRALL, S.A., priority 2011, dated 2015).

Tests used:
Assay type in all cases: biochemical
[1] = target: T1, human JAK3 (aa 795-1124) catalytic domain (Homo sapiens, UniProt P52333); assay: In vitro JAK kinase assay (TR-FRET), JAK3; conditions: ATP 0.6 μM, peptide 140 nM, 30 minutes at room temperature
T1 construct: JAK3 (aa 795-1124); purchased Carna Biosciences; host or cells: baculovirus expression system (insect cells)
Procedure: (§1) Compounds were screened for their ability to inhibit JAK1, JAK2 and JAK3 using the assays as indicated below.
(§2) The catalytic domains of human JAK1 (aa 850-1154), JAK2 (aa 826-1132), JAK3 (aa 795-1124) and Tyk2 (aa 871-1187) were expressed as N-terminal GST-fusion proteins using a baculovirus expression system and were purchased from Carna Biosciences. The enzymatic activity was assayed using as substrate a biotinylated peptide, poly (GT)-Biotin (CisBio). The peptide concentration in the reactions was 60 nM for JAK1, 20 nM for JAK2, 140 nM for JAK3 and 50 nM for Tyk2. The degree of phosphorylation was detected by TR-FRET (time-resolved fluorescence energy transfer).
(§3) IC50s of compounds were measured for each kinase in a reaction mixture containing the enzyme, ATP and the peptide in 8 mM MOPS (pH 7.0), 10 mM MgCl2, 0.05% β-mercaptoethanol, 0.45 mg/ml BSA. The ATP concentration in the reactions was 3 μM for JAK1, 0.2 μM for JAK2, 0.6 μM for JAK3 and 1.8 μM for Tyk2. The enzymatic reactions took place for 30 minutes at room temperature. Then, the reactions were stopped with 20 μL of quench detection buffer (50 mM HEPES, 0.5 M KF, EDTA 0.25 M, 0.1% (w/v) BSA, pH 7.5) containing 0.115 μg/mL of anti-phosphoTyr (PT66)-Cryptate (CisBio) and a variable concentration of SA-XL665 (CisBio) to keep the SA-B ratio constant. Incubate for 3 h and read on Victor 2V spectrofluorometer (Perkin Elmer) set to read fluorescence resonance energy transfer.

[2] = target: T2, human JAK2 (aa 826-1132) catalytic domain (Homo sapiens, UniProt O60674); assay: In vitro JAK kinase assay (TR-FRET), JAK2; conditions: ATP 0.2 μM, peptide 20 nM, 30 minutes at room temperature
T2 construct: JAK2 (aa 826-1132); purchased Carna Biosciences; host or cells: baculovirus expression system (insect cells)
Procedure: as §1, §2, §3

[3] = target: T3, human JAK1 (aa 850-1154) catalytic domain (Homo sapiens, UniProt P23458); assay: In vitro JAK kinase assay (TR-FRET), JAK1; conditions: ATP 3 μM, peptide 60 nM, 30 minutes at room temperature
T3 construct: human JAK1 (aa 850-1154); purchased Carna Biosciences; host or cells: baculovirus expression system (insect cells)
Procedure: as §1, §2, §3

T3 sequence (P23458 850-1154): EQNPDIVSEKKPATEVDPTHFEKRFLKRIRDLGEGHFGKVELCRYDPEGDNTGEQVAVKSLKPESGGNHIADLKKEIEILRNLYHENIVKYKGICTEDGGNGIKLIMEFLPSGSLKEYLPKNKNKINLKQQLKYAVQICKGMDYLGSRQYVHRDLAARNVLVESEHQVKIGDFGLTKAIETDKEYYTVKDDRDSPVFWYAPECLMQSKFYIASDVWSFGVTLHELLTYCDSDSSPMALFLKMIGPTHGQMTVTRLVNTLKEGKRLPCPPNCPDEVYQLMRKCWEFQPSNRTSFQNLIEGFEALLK
T1 sequence (P52333 795-1124): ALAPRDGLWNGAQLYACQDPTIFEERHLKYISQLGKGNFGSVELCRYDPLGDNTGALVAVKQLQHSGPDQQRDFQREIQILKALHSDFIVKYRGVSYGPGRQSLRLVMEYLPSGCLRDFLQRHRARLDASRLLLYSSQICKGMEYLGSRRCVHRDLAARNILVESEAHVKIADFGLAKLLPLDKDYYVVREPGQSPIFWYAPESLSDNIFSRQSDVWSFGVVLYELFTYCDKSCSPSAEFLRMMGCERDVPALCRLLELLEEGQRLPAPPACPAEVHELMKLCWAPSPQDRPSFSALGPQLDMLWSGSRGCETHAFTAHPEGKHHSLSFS
T2 sequence (O60674 826-1132): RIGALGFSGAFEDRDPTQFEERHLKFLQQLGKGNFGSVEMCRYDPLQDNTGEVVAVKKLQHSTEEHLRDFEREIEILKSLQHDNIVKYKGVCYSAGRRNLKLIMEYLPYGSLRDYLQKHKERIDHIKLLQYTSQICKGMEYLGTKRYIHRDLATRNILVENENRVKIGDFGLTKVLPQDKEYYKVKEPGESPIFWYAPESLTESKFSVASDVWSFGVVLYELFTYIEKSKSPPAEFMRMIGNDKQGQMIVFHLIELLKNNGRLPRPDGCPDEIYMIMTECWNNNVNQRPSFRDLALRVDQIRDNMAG

Row | IC50 [1] | IC50 [2] | IC50 [3] | Compound
1 | < 100 nM | < 100 nM | < 100 nM | Cc1cnc(Nc2cc(Cl)c[nH]c2=O)nc1N[C@@H](C)c1ccc(F)cn1 [Example 7, (S)-5-chloro-3-(4-(1-(5-fluoropyridin-2-yl)ethylamino)-5-methylpyrimidin-2-ylamino)pyridin-2(1H)-one]
2 | < 100 nM | < 100 nM | 100 to 1000 nM | C[C@H](Nc1nc(Nc2ccc[nH]c2=O)ncc1C(N)=O)c1ccc(F)cn1 [Example 6, (S)-4-(1-(5-fluoropyridin-2-yl)ethylamino)-2-(2-oxo-1,2-dihydropyridin-3-ylamino) pyrimidine-5-carboxamide]
3 | < 100 nM | < 100 nM | 100 to 1000 nM | C[C@H](Nc1cccc(Nc2ccc[nH]c2=O)n1)c1ccc(F)cn1 [Example 12]
4 | 100 to 1000 nM | < 100 nM | > 1000 nM | O=c1[nH]cccc1Nc1nccc(N[C@H]2CC[C@H](CS(=O)(=O)N3CCCC(O)C3)CC2)n1 (relative stereo) [Example 14, 3-({4-[(trans-4-{[(3-hydroxypiperidin-1-yl)sulfonyl]methyl}cyclohexyl)amino]pyrimidin-2-yl}amino)pyridin-2(1H)-one]
5 | < 100 nM | < 100 nM | < 100 nM | Cc1c(Nc2ccc[nH]c2=O)nc(N[C@@H]2CCCN(C(=O)CC#N)C2)nc1N1CCOCC1 [Example 22, 3-[(3R)-3-({5-methyl-4-morpholin-4-yl-6-[(2-oxo-1,2-dihydropyridin-3-yl)amino]pyrimidin-2-yl}amino)piperidin-1-yl]-3-oxopropanenitrile]
6 | < 100 nM | < 100 nM | < 100 nM | N#CCC(=O)N1CCC[C@@H](Nc2nc(Nc3ccc[nH]c3=O)ncc2F)C1 [Example 17, (R)-3-(3-(5-Fluoro-2-(2-oxo-1,2-dihydropyridin-3-ylamino)pyrimidin-4-ylamino)piperidin-1-yl)-3-oxopropanenitrile]
7 | < 100 nM | < 100 nM | 100 to 1000 nM | O=c1[nH]cccc1Nc1ncc(F)c(N[C@@H]2CCCN(c3nnc[nH]3)C2)n1 [Example 18, (R)-3-(4-(1-(4H-1,2,4-Triazol-3-yl)piperidin-3-ylamino)-5-fluoropyrimidin-2-ylamino) pyridin-2(1H)-one]
8 | < 100 nM | < 100 nM | < 100 nM | C[C@H](Nc1cncc(Nc2ccc[nH]c2=O)n1)c1ccc(F)cn1 [Example 11, 3-[(6-{[(1S)-1-(5-Fluoropyridin-2-yl)ethyl]amino}pyrazin-2-yl)amino]pyridin-2(1H)-one]
9 | < 100 nM | < 100 nM | < 100 nM | N#CCC(=O)N1CCC[C@@H](Nc2nc(Nc3ccc[nH]c3=O)nc(N3CCOCC3)c2F)C1 [Example 20, 3-[(3R)-3-({5-fluoro-6-morpholin-4-yl-2-[(2-oxo-1,2-dihydropyridin-3-yl)amino]pyrimidin-4-yl}amino)piperidin-1-yl]-3-oxopropanenitrile]
10 | < 100 nM | < 100 nM | < 100 nM | C[C@H](Nc1nc(Nc2ccc[nH]c2=O)ncc1O)c1ccc(F)cn1 [Example 5, 3-[(4-{[(1S)-1-(5-fluoropyridin-2-yl)ethyl]amino}-5-hydroxypyrimidin-2-yl)amino]pyridin-2(1H)-one]
11 | < 100 nM | < 100 nM | < 100 nM | Cc1cnc(Nc2ccc[nH]c2=O)nc1N[C@H]1CC[C@H](CC#N)CC1 [Example 13, 2-((1r,4r)-4-(5-Methyl-2-(2-oxo-1,2-dihydropyridin-3-ylamino)pyrimidin-4-ylamino)cyclohexyl)acetonitrile]
12 | < 100 nM | < 100 nM | < 100 nM | COc1cnc(Nc2ccc[nH]c2=O)nc1N[C@@H](C)c1ccc(F)cn1 [Example 4, 3-[(4-{[(1S)-1-(5-fluoropyridin-2-yl)ethyl]amino}-5-methoxypyrimidin-2-yl)amino]pyridin-2(1H)-one]
